The source of these data is patent US9977024B2, “Targeted covalent probes and inhibitors of proteins containing redox-sensitive cysteines” (THE SCRIPPS RESEARCH INSTITUTE, priority 2012, dated 2018).

SMILES strings stand for the structures. Entries after “also recorded” stand apart in the source; their conditions may differ.

Data set [1] has as its target T1, oxidized PTP1B (Homo sapiens, UniProt P18031).
T1 sequence (P18031 1-435): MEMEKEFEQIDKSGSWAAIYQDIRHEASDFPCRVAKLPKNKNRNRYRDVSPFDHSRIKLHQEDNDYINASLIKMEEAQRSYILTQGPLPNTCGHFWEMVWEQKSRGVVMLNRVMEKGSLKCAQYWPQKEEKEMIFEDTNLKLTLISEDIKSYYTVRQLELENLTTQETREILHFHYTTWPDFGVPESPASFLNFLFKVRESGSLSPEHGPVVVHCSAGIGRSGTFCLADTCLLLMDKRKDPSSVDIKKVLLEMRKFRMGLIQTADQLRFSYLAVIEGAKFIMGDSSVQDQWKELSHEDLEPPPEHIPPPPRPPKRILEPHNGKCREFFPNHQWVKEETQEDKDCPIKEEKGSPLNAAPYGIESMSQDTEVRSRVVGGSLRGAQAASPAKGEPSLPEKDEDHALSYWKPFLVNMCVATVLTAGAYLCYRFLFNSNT
Description: Adduct formation with oxidized PTP1B, mass spectroscopy analysis.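 Further: detection of covalent adducts formed between each compound and oxidized PTP1B, assessed by mass spectroscopy.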 The conditions noted are these: adduct seen by mass spectroscopy analysis. It is filed as binding.
Description: In further embodiments of the method, a fragment of the target protein may be used instead of the entire target protein. Certain embodiments may be directed to the binding between the compound and the target protein in the samples which may form a covalent adduct between the compound and the target protein, and the quantity of covalent adducts may be measured and compared in the samples. Any suitable assay for measuring the quantity of binding, or quantity of covalent adducts, in the two samples may be used with this method. For example, binding between the compound and the target protein may be detected using mass spectroscopy, fluorescence assays, and/or chromatography techniques. The chromatography techniques may include, but are not limited to, high-performance liquid chromatography. Further, binding between the compound and target protein may be detected using a combination of assays, for example, a combination of liquid chromatography and mass spectroscopy. The method may also be carried out in live and intact cells to determine a compound's reactivity with oxidized forms of the target protein in live cells. In certain embodiments, the potency of the compound is determined based on the degree of reduction of the quantity of adducts formed in the first sample compared with the quantity of adducts formed in the control sample, in a proportion to the quantity of compound used. In further embodiments, the potency of the compound is determined by calculating a ratio of the number of adducts formed in the first sample compared to the number of adducts formed in the control sample. A ratio of one compound can be compared directly to a ratio for another compound.
The degree of potency of the compound may be based on the degree of reduction of the quantity of adducts formed in a first sample compared with the quantity of adducts formed in the control sample in proportion to the quantity of compound used.

In data set [2] the test system is GPX3. Description: In vitro probe labeling of oxidized recombinant protein, click chemistry and Western blot. It counts as binding. As to conditions: H2O2 1.5 eq, probe 1 hour. The protocol:
(§1) Cell labeling western blot assays were performed using WT PJ3H-PTP1B purified from E. coli that was cloned into a mammalian expression plasmid. Recombinant PTP1B was expressed and purified from BL21AI cells. Recombinant proteins were labeled with respective equivalences of hydrogen peroxide (PTP1B, 10 eq; Gpx3 & GAPDH, 1.5 eq) in the presence of the indicated concentrations of sulfenic acid probes for 1 hour at room temperature with constant rocking Excess probe was removed by size-exclusion chromatography. Probe modified proteins were functionalized with a biotin reporter tag through the bioorthogonal Huisgen [3+2] Cycloaddition (“click chemistry”) then analyzed by Western blot.

The target in data set [3] is GAPDH (Homo sapiens, UniProt P04406). The description is as above. It counts as binding. As to conditions: H2O2 1.5 eq, probe 1 hour. The protocol: as §1
Sequence of GAPDH (P04406 whole entry, species assumed): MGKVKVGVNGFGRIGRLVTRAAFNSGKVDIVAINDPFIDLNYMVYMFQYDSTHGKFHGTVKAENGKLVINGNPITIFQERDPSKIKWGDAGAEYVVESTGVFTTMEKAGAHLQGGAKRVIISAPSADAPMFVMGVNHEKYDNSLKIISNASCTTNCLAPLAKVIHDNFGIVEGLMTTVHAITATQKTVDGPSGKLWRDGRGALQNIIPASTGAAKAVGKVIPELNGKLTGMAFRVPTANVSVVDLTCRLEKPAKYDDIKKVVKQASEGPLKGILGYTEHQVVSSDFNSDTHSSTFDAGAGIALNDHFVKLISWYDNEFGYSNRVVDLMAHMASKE
Data set [4] has as its target T2, PTP1B (Homo sapiens, UniProt P18031).
T2 sequence (P18031 1-435): T1 sequence (P18031 1-435)
Description: PTP assay, 4-MUP fluorescence. It counts as biochemical. As to conditions: FIG. 20 fluorescence assay, percent activity. As for the experimental part: as §1
The PTP assay included PTP that was prepared up to 100 nM in 32 mM HEPES, pH 7.2, 5 mM NaCl, 2.5 mM EDTA, 0.83% glycerol, 0.02% Triton X-100, and 0.002% Brij-35. The protein was dispensed to a black ckear-bottomed 96-well microplate followed by the addition of redox-based probes or DMSO and allowed to incubate for 15 minutes at 25° C. The assay was initiated with the addition of 4-methylumbelliferyl phosphate (4-MUP), and the formation of fluorescent product was measured with an excitation wavelength of 358 nm and emission wavelength of 449 nm.

A short description of data set [5]: Plasma stability in mice (20 mg/kg IP). It counts as in vivo. The conditions noted are these: mouse, intraperitoneal. The protocol: Plasma stability of drug candidates may be essential for maintaining acceptable drug concentration and half-life in order to achieve desirable pharmacological effects. Compounds 1a to 5a were evaluated for plasma stability in mice with PD168393 as the reference. […] At a time point of 24 hours, Compounds 1a-5a and PD168393 were almost completely degraded.

Data set [6] in a line: in vitro. The conditions noted are these: human, microsomes.
A short description of data set [7]: Microsome stability, mouse liver microsomes. As to conditions: read-out: Microsome Stability Mouse t1/2. It counts as in vitro ADME.
Data set [8] concerns A431 and HeLa cells. As to conditions: compared to DAz-2, identical conditions; cited from earlier work.
A short description of data set [9]: Microsome stability, human liver microsomes.
Data set [10] is described as follows: Dipeptide sulfenic acid model, reaction rate.

For the compound `O=C1CC(=O)C(c2ccccc2)C1` (stereo not drawn), the “REACTIVITY WITH OXIDIZED PTP1B” value in data set [1] is “No adduct”.

For the compound `O=C1CC(=O)N(c2ccccc2)C1`, the “REACTIVITY WITH OXIDIZED PTP1B” value in [1] is listed as “Adduct”.

As to `COc1ccc(-c2ccccc2)cc1N1CC(=O)CC1=O`, the “REACTIVITY WITH OXIDIZED PTP1B” value in data set [1] is on record as “Adduct”.

With `O=C1CC(=O)N(c2cc(-c3ccccc3)ccc2O)C1`, in data set [1], the “REACTIVITY WITH OXIDIZED PTP1B” value is reported as “Adduct”.

For `O=C1CC(=O)C(Cc2ccccc2)C1` (stereo not drawn), the “REACTIVITY WITH OXIDIZED PTP1B” value in [1] is reported as “No adduct”.

In the case of `O=C1CC(=O)N(Cc2ccccc2)C1`, the “REACTIVITY WITH OXIDIZED PTP1B” value in data set [1] is on record as “Adduct”.

In the case of `COc1ccc(-c2ccccc2)cc1CN1CC(=O)CC1=O`, the “REACTIVITY WITH OXIDIZED PTP1B” value in [1] was “Adduct”.

With `O=C1CC(=O)N(Cc2cc(-c3ccccc3)ccc2O)C1`, the “REACTIVITY WITH OXIDIZED PTP1B” value in data set [1] was “Adduct”.

On to `O=C1CC(c2ccccc2)S(=O)(=O)C1` (stereo not drawn), for which the “REACTIVITY WITH OXIDIZED PTP1B” value in data set [1] is on record as “No adduct”.

Turning to `O=C1CN(c2ccccc2)S(=O)(=O)C1`, the “REACTIVITY WITH OXIDIZED PTP1B” value in data set [1] is “No adduct”.

In the case of `O=C1CC(Cc2ccccc2)S(=O)(=O)C1` (stereo not drawn), the “REACTIVITY WITH OXIDIZED PTP1B” value in [1] is recorded as “No adduct”.

As to `O=C1CN(Cc2ccccc2)S(=O)(=O)C1`, in data set [1], the “REACTIVITY WITH OXIDIZED PTP1B” value is “No adduct”.

As to `O=C1CC(=O)/C(=C\c2ccccc2)C1`, the “REACTIVITY WITH OXIDIZED PTP1B” value in data set [1] is “No adduct”.

`O=C1C/C(=C/c2ccccc2)S(=O)(=O)C1`: the “REACTIVITY WITH OXIDIZED PTP1B” value in data set [1] is “No adduct”.

As to `COc1ccc(-c2ccccc2)cc1N1CC(=O)CS1(=O)=O`, in data set [1], the “REACTIVITY WITH OXIDIZED PTP1B” value is “No adduct”.

With `O=C1CC(=O)c2ccccc21`, in data set [1], the “REACTIVITY WITH OXIDIZED PTP1B” value is on record as “Adduct”.

As for `O=C1CS(=O)(=O)c2ccccc21`, in data set [1], the “REACTIVITY WITH OXIDIZED PTP1B” value is “Adduct”.

Regarding `O=C1CS(=O)(=O)Cc2ccccc21`, the “REACTIVITY WITH OXIDIZED PTP1B” value in [1] was “Adduct”.

Turning to `CN1c2ccccc2C(=O)CS1(=O)=O`, in data set [1], the “REACTIVITY WITH OXIDIZED PTP1B” value is reported as “Adduct”.

Turning to `O=C1CS(=O)(=O)N(Cc2ccccc2)c2ccccc21`, the “REACTIVITY WITH OXIDIZED PTP1B” value in [1] was “No Adduct”.

For `O=C1CS(=O)(=O)c2ccccc2N1`, in [1], the “REACTIVITY WITH OXIDIZED PTP1B” value is listed as “No Adduct”.

Consider `CN1C(=O)CS(=O)(=O)c2ccccc21`, for which, in data set [1], the “REACTIVITY WITH OXIDIZED PTP1B” value is on record as “No Adduct”.

For `O=C1CC(=O)c2ccccc2N1`, in data set [1], the “REACTIVITY WITH OXIDIZED PTP1B” value was “No Adduct”.

As to `CN1C(=O)CC(=O)c2ccccc21`, in data set [1], the “REACTIVITY WITH OXIDIZED PTP1B” value is recorded as “No Adduct”.

Take `O=C1CS(=O)(=O)Nc2ccccc21`: in [1], the “REACTIVITY WITH OXIDIZED PTP1B” value is “No Adduct”.

Consider `O=C1CCN(c2ccccc2)C(=O)C1`, for which the “REACTIVITY WITH OXIDIZED PTP1B” value in data set [1] is listed as “Adduct”.

Consider `O=C1CCN(Cc2ccccc2)C(=O)C1`, for which the “REACTIVITY WITH OXIDIZED PTP1B” value in data set [1] was “Adduct”.

In the case of `C#CCCCNC(=O)C1CC(=O)CC(=O)C1` [Compound 1], the “preferential detection of control protein GPX3” value in data set [2] is given as “no preferential detection”. Besides, the “preferential detection of control protein GAPDH” value in data set [3] is “no preferential detection”.

For the compound `C#CCCCNC(=O)c1ccc(-c2ccc(NC(=O)C3CC(=O)CC(=O)C3)cc2)cc1` [Compound 3], the 50% inhibitory concentration (IC50) in data set [4] is ~250 µM.

Turning to `CC(=O)CC(=O)Nc1ccc2ncnc(Nc3cccc(Br)c3)c2c1` [Compound 3a], in data set [5], the concentration at 1 h stood at 29100 nM, the concentration at 4 h turned out to be 1100 nM, the concentration at 8 h turned out to be 100 nM and the concentration at 24 h is < 25 nM. In addition, in data set [6], the half-life is 17 min and the microsomal CLint was 39.7 µL/min/mg. In data set [7], the half-life was 4 min.

Regarding `C#CCCCC1CCC(=O)CC1=O` (stereo not drawn) [DYn-2], in data set [8], the “total signal and signal ratio of cell labeling” value is “greater total signal and signal ratio compared to DAz-2”.

In data set [9], `C=CC(=O)Nc1ccc2ncnc(Nc3cccc(Br)c3)c2c1` [PD168393, reference compound] yielded a half-life of 10 min and an intrinsic metabolic clearance (microsomal CLint) of 72.4 µL/min/mg. Also, in data set [5], the concentration at 1 h amounted to 2000 nM, the concentration at 4 h was 40 nM, the concentration at 8 h is 50 nM and the concentration at 24 h was < 5 nM. The half-life in [7] came out at 3 min.

As to `CC1(C)CC(=O)CC(=O)C1` [dimedone, reference compound], the “REACTIVITY WITH OXIDIZED PTP1B” value in data set [1] is given as “not reactive enough to trap the sulfenic acid in PTP1B as an observable adduct; also recorded: no adduct”. Further, the “rate constant for reaction in the dipeptide model (pseudo first-order)” value in data set [10] came out at 1 min⁻¹.

Regarding `CC1(C)CC(=O)CC(=O)C1` [drawing 1], the “REACTIVITY WITH OXIDIZED PTP1B” value in [1] is “No adduct”.
